Laboratory results as given in ChEMBL document CHEMBL1201862, “PubChem BioAssay data set” (2004).
Active and inactive are the calls of the source.

What was measured:
Vero = test: cells; assay type: functional, cell-based; conditions: Chlorocebus sabaeus
Streptococcus = test: Group A Streptococcus viability loss, dose response, counter-screen for streptokinase expression inhibitor project, luminescence, BacTiterGlo (AID 1915); assay type: functional, organism-based;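 further: potency for reduction of bacterial viability or growth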
Streptokinase A = target: T1, Streptokinase A (Streptococcus pyogenes serotype M1, UniProt P10520); test: S. pyogenes streptokinase expression inhibitors, potency, dose response, plasminogen activation absorbance, OD405 (AID 1914); assay type: functional, Streptococcus pyogenes M1 GAS;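 further: secreted streptokinase activity via plasminogen activation per viability signal from cell pellet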
T1 sequence (P10520 whole entry): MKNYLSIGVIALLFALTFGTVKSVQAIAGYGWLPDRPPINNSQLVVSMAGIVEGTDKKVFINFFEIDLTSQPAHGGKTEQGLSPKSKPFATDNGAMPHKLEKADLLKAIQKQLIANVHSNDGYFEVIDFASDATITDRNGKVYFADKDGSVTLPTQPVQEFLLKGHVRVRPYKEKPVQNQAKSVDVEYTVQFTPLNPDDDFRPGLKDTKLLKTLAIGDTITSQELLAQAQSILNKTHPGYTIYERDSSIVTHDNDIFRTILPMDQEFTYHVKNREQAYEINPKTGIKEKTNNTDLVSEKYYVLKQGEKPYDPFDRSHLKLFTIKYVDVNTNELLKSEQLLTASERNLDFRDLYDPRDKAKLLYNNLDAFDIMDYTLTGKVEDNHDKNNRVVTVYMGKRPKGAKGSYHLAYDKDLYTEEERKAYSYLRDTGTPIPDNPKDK

[1] = tested on: Streptococcus sp. 'group A'; test: growth inhibition of control SK(-) GAS strain, dose response, counter-screen for streptokinase expression inhibitor project, luminescence, kanamycin, BacTiterGlo, confirmation (AID 1900); assay type: functional, organism-based
[2] = target: Disintegrin and metalloproteinase domain-containing protein 17 (Homo sapiens, UniProt P78536); test: ADAM17 protease inhibitors, dose response, counter-screen for ADAM10 exosite inhibitor project, biochemical, quenched FRET substrate (AID 743253)
[3] = target: T2, Microphthalmia-associated transcription factor (Homo sapiens, UniProt O75030); test: TRPM1 promoter luciferase signal decrease, dose response, MITF inhibitor project, cell-based, SK-MEL-5, cherry-picked, set 3 (AID 493073); assay type: functional
T2 sequence (O75030 whole entry): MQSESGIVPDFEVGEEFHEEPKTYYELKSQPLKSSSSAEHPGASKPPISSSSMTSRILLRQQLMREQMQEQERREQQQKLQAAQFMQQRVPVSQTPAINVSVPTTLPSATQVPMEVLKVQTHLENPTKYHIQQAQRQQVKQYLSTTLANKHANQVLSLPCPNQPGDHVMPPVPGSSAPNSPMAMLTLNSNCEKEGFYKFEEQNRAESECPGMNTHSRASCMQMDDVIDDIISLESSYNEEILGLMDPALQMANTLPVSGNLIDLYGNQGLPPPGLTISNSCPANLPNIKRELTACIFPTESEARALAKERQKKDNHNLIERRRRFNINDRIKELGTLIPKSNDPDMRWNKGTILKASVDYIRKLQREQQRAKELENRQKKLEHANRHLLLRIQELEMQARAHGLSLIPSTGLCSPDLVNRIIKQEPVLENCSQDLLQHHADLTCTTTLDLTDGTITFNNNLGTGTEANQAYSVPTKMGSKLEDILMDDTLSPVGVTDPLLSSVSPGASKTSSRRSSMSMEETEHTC

[4] = microbe, parasite or virus in culture; assay type: functional; conditions: Mycobacterium tuberculosis
Protein RecA = target: T3, Protein RecA (Mycobacterium tuberculosis, UniProt P9WHJ3); test: Fluorescence Cell-Free Homogeneous Dose Retest to Identify Inhibitors of RecA-Intein Splicing Activity. [Related pubchem assays (depositor defined):AID2097, AID2223, AID489010, AID492950]; assay type: functional
T3 sequence (P9WHJ3 whole entry): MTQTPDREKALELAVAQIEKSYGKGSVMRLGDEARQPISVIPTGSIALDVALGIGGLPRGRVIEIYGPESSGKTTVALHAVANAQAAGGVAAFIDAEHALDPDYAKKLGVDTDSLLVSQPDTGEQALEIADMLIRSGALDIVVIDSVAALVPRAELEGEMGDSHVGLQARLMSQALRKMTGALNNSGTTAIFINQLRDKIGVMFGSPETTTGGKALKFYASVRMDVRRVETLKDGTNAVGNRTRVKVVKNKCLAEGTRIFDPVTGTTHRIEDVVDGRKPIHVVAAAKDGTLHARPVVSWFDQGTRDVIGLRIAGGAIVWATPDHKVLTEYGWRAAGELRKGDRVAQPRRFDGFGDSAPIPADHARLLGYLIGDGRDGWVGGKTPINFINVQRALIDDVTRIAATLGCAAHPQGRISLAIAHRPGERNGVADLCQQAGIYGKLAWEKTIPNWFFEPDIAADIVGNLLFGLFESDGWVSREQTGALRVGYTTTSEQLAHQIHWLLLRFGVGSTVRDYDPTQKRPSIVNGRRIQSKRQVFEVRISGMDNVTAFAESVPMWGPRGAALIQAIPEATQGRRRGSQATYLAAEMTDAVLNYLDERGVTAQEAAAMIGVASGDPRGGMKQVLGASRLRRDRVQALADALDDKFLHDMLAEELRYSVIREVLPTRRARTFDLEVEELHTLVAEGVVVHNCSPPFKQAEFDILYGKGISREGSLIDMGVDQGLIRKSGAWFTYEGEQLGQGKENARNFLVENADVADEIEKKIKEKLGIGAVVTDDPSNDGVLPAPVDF

[5] = target: T4, Replicative DNA helicase DnaB (Mycobacterium tuberculosis, UniProt P9WMR3); test: DnaB intein splicing inhibitors, dose response, biochemical, cell-free fluorescence (AID 449749); assay type: functional
T4 sequence (P9WMR3 whole entry): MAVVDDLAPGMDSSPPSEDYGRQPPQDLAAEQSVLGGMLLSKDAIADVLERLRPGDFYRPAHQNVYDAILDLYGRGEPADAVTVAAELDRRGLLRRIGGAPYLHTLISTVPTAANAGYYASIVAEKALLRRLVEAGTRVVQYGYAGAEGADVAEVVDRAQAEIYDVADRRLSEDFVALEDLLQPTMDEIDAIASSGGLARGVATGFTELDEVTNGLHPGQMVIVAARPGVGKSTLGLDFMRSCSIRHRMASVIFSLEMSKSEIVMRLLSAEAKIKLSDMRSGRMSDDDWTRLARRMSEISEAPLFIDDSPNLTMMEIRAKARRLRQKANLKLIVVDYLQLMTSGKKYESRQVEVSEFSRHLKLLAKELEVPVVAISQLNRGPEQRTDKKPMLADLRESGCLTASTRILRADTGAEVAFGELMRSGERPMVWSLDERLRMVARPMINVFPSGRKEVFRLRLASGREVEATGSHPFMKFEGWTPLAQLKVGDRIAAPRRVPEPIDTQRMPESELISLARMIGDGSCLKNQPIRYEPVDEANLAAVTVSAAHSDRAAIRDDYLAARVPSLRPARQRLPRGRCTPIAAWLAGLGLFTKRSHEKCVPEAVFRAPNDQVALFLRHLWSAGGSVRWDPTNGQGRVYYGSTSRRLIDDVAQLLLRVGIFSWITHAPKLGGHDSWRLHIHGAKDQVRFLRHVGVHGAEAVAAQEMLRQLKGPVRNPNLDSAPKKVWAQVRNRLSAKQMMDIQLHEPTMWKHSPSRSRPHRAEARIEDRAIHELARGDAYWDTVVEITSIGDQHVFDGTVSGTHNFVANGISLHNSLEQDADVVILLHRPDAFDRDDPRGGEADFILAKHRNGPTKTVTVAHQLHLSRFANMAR

[6] = off-target signal loss in HeLa-CEM21 co-culture – HeLa F-luc CTL cells, cherry-picked, counter-screen for HIV-1 Env fusion inhibitor project, dose response (AID 652040); assay type: functional, cell-based;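 further: potency for signal decrease marking cytotoxic or nonspecific inhibition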
[7] = inhibitors of HIV Env-driven cell fusion, dose response, cherry-pick (AID 652057); assay type: functional, cell-based
[8] = inhibitors of clade B AD8 Env fusion, dose response, cell-based, cherry-pick (AID 652062); assay type: functional;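 further: luciferase signal from cell-cell fusion driven by HIV-1 clade B AD8 Env; potency is for inhibitors of fusion seen as a drop in luminescence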
[9] = ZM109 Env clade C HIV-1 fusion inhibitors, dose response, HeLa effector, CEM target cells, luciferase, cherry-pick (AID 652058); assay type: functional, cell-based
[10] = THP-1 cell cytotoxicity, dose response, cytotoxicity control for non-replicating M. tuberculosis project (AID 489025); assay type: functional
cells = assay type: functional
[11] = Vero E6 cell cytotoxicity, dose response, cytotoxicity control for non-replicating M. tuberculosis project, secondary assay (AID 492998); assay type: functional, VeroE6; conditions: Vero C1008
[12] = Luminescence Cell-Based Dose Response HTS to Identify Inhibitors of 5'UTR Stem-Loop Driven Prion Protein mRNA Translation in H4 Neuroglioblastoma Cells. [Related pubchem assays: 1827 (Project Summary), 1813 (Primary HTS)]; assay type: functional
H9c2 = test: cells; assay type: functional, cell-based; conditions: Rattus norvegicus, H9c2, Myocardium
[13] = inhibitors of SNCA 5'UTR-driven reporter translation, confirmation, H4 neuroglioma cells, luminescence (AID 1988); assay type: functional, cell-based
[14] = inhibitors of firefly luciferase expression or activity, dose response, H4 neuroglioma cells, luminescence (AID 1990); assay type: functional, cell-based
SN12K1 = test: cells; assay type: functional; conditions: Homo sapiens
P388/ADR = test: cells; assay type: functional; conditions: Mus musculus
P388 = test: cells; assay type: functional; conditions: Mus musculus
[15] = intracellular Trypanosoma cruzi inhibitors in host cells – cell-based, plate reader, cherry-pick samples, set 3, dose response (AID 651818); assay type: functional;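 further: compounds incubated with infected cells for about four days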
Paired box protein Pax-8 = Paired box protein Pax-8 (Homo sapiens, UniProt Q06710); test: inhibitors of PAX8-driven TPO luciferase reporter, dose response, RMG-I cells, cherry-pick (AID 687027); assay type: functional, cell-based;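 further: luciferase reporter driven by Pax8 target thyroperoxidase promoter measured by SteadyGlo luminescence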
Chain of Paired box protein Pax-8 (Q06710 whole entry): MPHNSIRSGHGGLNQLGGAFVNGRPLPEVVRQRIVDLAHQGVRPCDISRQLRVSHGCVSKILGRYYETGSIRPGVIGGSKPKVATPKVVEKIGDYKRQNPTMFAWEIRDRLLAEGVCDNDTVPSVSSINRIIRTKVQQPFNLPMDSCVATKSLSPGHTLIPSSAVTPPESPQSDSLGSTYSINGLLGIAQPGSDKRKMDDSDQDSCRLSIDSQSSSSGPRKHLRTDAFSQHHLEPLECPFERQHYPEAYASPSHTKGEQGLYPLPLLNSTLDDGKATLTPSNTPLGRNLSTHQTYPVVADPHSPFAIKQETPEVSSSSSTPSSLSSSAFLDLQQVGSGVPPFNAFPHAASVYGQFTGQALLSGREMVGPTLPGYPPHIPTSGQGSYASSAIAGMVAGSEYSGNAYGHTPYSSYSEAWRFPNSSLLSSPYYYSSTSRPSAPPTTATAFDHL

Chain of Disintegrin and metalloproteinase domain-containing protein 17 (P78536 whole entry, the tested form may be a part): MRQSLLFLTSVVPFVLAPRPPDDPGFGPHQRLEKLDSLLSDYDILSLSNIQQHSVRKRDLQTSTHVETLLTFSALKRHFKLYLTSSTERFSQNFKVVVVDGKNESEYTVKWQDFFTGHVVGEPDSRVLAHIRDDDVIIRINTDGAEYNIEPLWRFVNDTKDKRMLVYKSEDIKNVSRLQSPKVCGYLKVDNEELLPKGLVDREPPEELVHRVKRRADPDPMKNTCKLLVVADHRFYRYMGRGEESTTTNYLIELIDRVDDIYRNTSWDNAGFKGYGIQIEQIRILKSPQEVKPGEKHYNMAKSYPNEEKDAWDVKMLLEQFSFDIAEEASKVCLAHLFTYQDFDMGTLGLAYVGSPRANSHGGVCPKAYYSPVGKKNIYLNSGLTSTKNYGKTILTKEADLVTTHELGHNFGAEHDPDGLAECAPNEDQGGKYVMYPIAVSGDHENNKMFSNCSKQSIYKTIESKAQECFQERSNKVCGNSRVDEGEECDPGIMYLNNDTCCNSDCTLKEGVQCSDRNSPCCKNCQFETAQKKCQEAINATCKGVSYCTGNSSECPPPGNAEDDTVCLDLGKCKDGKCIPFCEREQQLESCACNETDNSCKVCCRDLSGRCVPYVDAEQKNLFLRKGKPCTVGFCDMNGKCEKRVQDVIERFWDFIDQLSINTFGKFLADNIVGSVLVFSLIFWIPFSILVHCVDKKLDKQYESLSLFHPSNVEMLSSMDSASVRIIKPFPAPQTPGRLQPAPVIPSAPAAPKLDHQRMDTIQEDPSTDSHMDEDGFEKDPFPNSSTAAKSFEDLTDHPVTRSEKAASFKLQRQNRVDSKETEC

## COCCN=C(S)NCc1ccc2[nH]c3c(c2c1)CCCC3
Vero
  IC50: 23.6 µM (active)

## O=C(OCc1csc(Nc2ccccc2)n1)c1ccc(Cl)cc1
Streptococcus
  EC50: > 150 µM (not active)
Streptokinase A
  EC50: 34.2 µM (active)
[1]
  EC50: 12.8 µM (active)
[2]
  IC50: > 69.5 µM (inactive)

## Cc1ccc(NC(=O)CCl)cc1S(=O)(=O)N1CCCCCC1
[3]
  AC50: 7.55 µM (active)
[4]
  CC50: 6.13 µM (active)
Protein RecA
  EC50: 3.67 µM (active)
[5]
  AC50: 14.7 µM (active)

## COc1ccc(N2C(=O)N3[C@H](c4ccc(Cl)cc4)[C@@H]4C(=O)N(C5CCCCC5)C(=O)[C@@H]4[C@]3(C)C2=O)cc1
[6]
  AC50: 3.54 µM (active)
[7]
  AC50: 2.73 µM (active)
[8]
  AC50: 5.1 µM (active)
[9]
  AC50: 3.16 µM (active)

## Cc1cc(C)n2nc(NCc3cccc(Br)c3)nc2n1
[6]
  AC50: 7.14 µM (active)
[7]
  AC50: 7.45 µM (active)
[8]
  AC50: 2.92 µM (active)
[9]
  AC50: 7.3 µM (active)

## COc1ccc(CCn2c(=S)[nH]c3cc(C(=O)NCc4ccco4)ccc3c2=O)cc1OC
[3]
  AC50: 17.7 µM (active)

## Cc1ccc(C)c(-c2nnc(NC(=O)c3ccc([N+](=O)[O-])o3)o2)c1
[10]
  CC50: 11.7 µM (active)
cells
  IC50: < 0.1 µM (active)
[11]
  CC50: 11.6 µM (active)

## O=C(NNC1=Nc2ccccc2SC1)c1ccc(F)cc1
Streptococcus
  EC50: 15.6 µM (active)
[10]
  CC50: > 40 µM (active)
cells
  IC50: 23.5 µM (active)
Streptokinase A
  EC50: > 150 µM (not active)
[11]
  CC50: > 20 µM (active)
[1]
  EC50: 3.72 µM (active)

## CCc1ccc(-c2cc3c(=O)n(CC(=O)NCCCN4CCN(CC)CC4)nc(C)n3n2)cc1
Vero
  IC50: > 25 µM (active)

## COc1cc(OC)cc(C(=O)NNC(=O)c2ccccn2)c1
[10]
  CC50: 10.6 µM (active)
[12]
  EC50: 11.2 µM (active)
cells
  IC50: 9.73 µM (active)
H9c2
  IC50: > 79 µM (inactive)
[11]
  CC50: 12.6 µM (active)
[13]
  EC50: > 120 µM (not active)
[14]
  EC50: 11.6 µM (active)

## Cc1cccc(-c2nnc3sc(-c4ccccc4C)nn23)c1
[10]
  CC50: 39 µM (active)
cells
  IC50: 34.6 µM (active)
[11]
  CC50: > 20 µM (active)

## O=C(CC1=NCCN1)c1ccccc1
SN12K1
  GI50: > 750 µM (inactive)
P388/ADR
  GI50: 705 µM (inactive)
P388
  GI50: > 750 µM (inactive)

## COc1cc(/C=C/C(=O)O)ccc1C(=O)OCc1ccccc1
SN12K1
  GI50: > 100 µM (inactive)
P388/ADR
  GI50: > 100 µM (inactive)
P388
  GI50: > 100 µM (inactive)

## CN(C)CCNC(=O)c1cccc2cc3cc(O)ccc3nc12
SN12K1
  GI50: 0.339 µM (active)
P388/ADR
  GI50: 0.288 µM (active)
P388
  GI50: 0.0748 µM (active)

## COc1ccc(S(=O)(=O)Nc2ccc3c(c2)CC(=O)N([C@H](C)CO)C[C@@H](C)[C@H](CN(C)Cc2ccc(Cl)c(Cl)c2)O3)cc1
[15]
  AC50: 1.94 µM (active)

## C[C@@H]1CN([C@@H](C)CO)C(=O)c2cccc(NC(=O)c3nc4ccccc4s3)c2O[C@@H]1CN(C)Cc1ccc(C(=O)Nc2ccccc2N)cc1
[15]
  AC50: 2.88 µM (active)

## Cc1ccc(S(=O)(=O)Nc2ccc3c(c2)CC(=O)N([C@@H](C)CO)C[C@H](C)[C@@H](CN(C)Cc2ccc(C(=O)Nc4ccccc4N)cc2)O3)cc1
[15]
  AC50: 2.74 µM (active)

## C[C@@H]1CN([C@H](C)CO)C(=O)Cc2cc(NC(=O)Nc3cccc4ccccc34)ccc2O[C@H]1CN(C)Cc1ccc(C(F)(F)F)cc1
[15]
  AC50: 3.46 µM (active)

## C[C@H](CO)N1C[C@H](C)[C@@H](CN(C)Cc2ccc(Oc3ccccc3)cc2)Oc2c(NS(=O)(=O)c3ccc(Cl)cc3)cccc2C1=O
[15]
  AC50: 3.36 µM (active)

## C[C@@H]1CN([C@H](C)CO)C(=O)Cc2cc(NC(=O)Nc3ccc(F)cc3)ccc2O[C@@H]1CN(C)Cc1ccc(Cl)c(Cl)c1
Paired box protein Pax-8
  AC50: 18.4 µM (active)
[15]
  AC50: 4.89 µM (active)

## COc1cc(C2c3cc4c(cc3[C@@H](Oc3ccc(F)cc3)C3COC(=O)[C@H]23)OCO4)cc(OC)c1O (some centres not stated)
SN12K1
  GI50: 0.31 µM (active)
P388/ADR
  GI50: 0.354 µM (active)
P388
  GI50: 0.327 µM (active)
